The values below come from patent US12492170B2, “Tetrahydro-1H-benzazepine compound as potassium channel modulator, preparation method and use thereof” (Shanghai Zhimeng Biopharma Inc., priority 2019, dated 2025).

Where two headings read alike, the source gives them in different places.

For one data set, the target named is T1, KCNQ2 potassium channel (Homo sapiens, UniProt O43526).
T1 construct: expressed in transfected cells; host or cells: CHO (CHO-KCNQ2, kept under G418 selection)
Description: Potassium ion channel opener activity test (FDSS/μCELL detection, FluxOR). Type of data set: cell-based. On the procedure:
After the digestion was completed, 7 mL culture medium (90% DMEM/F12+10% FBS+500 μg/mL G418) was added to neutralize, centrifugated for 3 minutes at 800 rpm, the supernatant was aspirated, then 5 mL culture medium was added to resuspend, and then the cells were counted.
Cell plating: the density to 3×10^4/well was adjusted according to the results of cell counting. After standing at room temperature for 30 minutes, placed in a 37° C. CO2 incubator and incubated overnight for 16-18 hours. The cell density reached about 80%.
Fluorescent dye incubation: discarded the cell culture medium, 80 μL/well loading buffer was added, and incubated in the dark at room temperature for 60 minutes.
Compound incubation: discarded the loading buffer, 80 μL/well prepared compound solution was added, incubated in the dark at room temperature for 20 minutes.
Fluorescence data collection: FDSS/μCELL instrument was used for real-time fluorescence signal recording, excitation wavelength was 480 nm, emission wavelength was 540 nm, recorded 1 times per second, recorded for 10 seconds after baseline and started to add 20 μL/well stimulation buffer, and then continued to record until the end of 180 seconds.
20 mM compound stock solution in DMSO was prepared, 10 μL of 20 mM compound stock solution was took into 20 μL DMSO solution, serially diluted 3 times to 8 intermediate concentrations; then the intermediate concentrations of the compound were took to the test buffer, diluted 200 times to get the final concentration to be tested, 80 μL was took and added to the test plate.
Each concentration set 3 duplicates.
The excitement effect of the compound was calculated by the following formula: […]

Data set [1] is described as follows: Pharmacokinetics and cerebral blood ratio after single administration in male ICR mice. To be noted: for AUC(0-inf) / AUC(0-t) / Cmax / half-life / Tmax: plasma. It is filed as in vivo. On the procedure:
Take a healthy male ICR mouse (weight range: 18-22 grams in), grouping, 24 mice/group, and 3 mice/time point, fasting for more than 12 hours (only oral administration group), administration, blood was collected by cardiac puncture at time points 0.083 (only iv), 0.25, 0.5, 1, 2, 4, 6 (only po), 8 and 24 hours, at least 0.3 mL of whole blood was collected to EDTA-K2 anti-coagulation tube, within half an hour, plasma was taken by centrifuge (6000 revolutions, 8 minutes, 4° C.), frozen at −20° C. for later use. At the same time, brain tissue was collected in the oral group. After being rinsed with the physiological saline, the water absorbing paper was used to dry, weighed, and frozen at −20° C. for later use.

The next data set concerns SD rats. Description: Safety research: single tail vein injection toxicity, maximum tolerated dose. Type of data set: in vivo. To be noted: male SD rats; for Maximum tolerated dose: observed 48 hours. On the procedure:
(§1) Male Sprague-Dawley (SD) rats (SPF grade) were selected, divided into groups (3 rats per group), and administered via tail vein injection. Single administration, observed for 48 hours after administration. During the experiment, two cage-side observations and two detailed clinical observations were performed every day (observation was carried out before and 2 hours after the administration on the day of administration). Toxicity study animals were weighed and recorded every day, and food consumption of each animal for 24±1 hours was measured and recorded every day. At the end of the experiment (D3), euthanasia was performed by carbon dioxide inhalation anesthesia and the death of the animal was ensured by abdominal aorta/venous bleeding, and gross anatomy was performed and recorded.

Experiment in data set [2]: as above
To be noted: rat, in vivo, male SD rats, observed 48 hours. Type of data set: in vivo. As for the experimental part: as §1

Setting [3] is: CHO-KCNQ2 cells, fluorescence, FDSS/μCELL, read-out: EC50.

On KCNQ2 potassium channel, `Cc1cc2c(c(C)c1NC(=O)CC(C)(C)C)CCCCN2Cc1ccc(F)cc1` [Compound A1, N-(1-(4-fluorobenzyl)-6,8-dimethyl-2,3,4,5-tetrahydro-1H-benzazepine-7-yl)-3,3-dimethylbutanamide] came in with a concentration for a half-maximal effect (EC50) of 83 nM. Further, the F in data set [1] (gavage 1 mg/kg vs intravenous 0.3 mg/kg) is given as 56.9%. In data set [1] (mouse, intravenous 0.3 mg/kg), the AUC(0-inf) was found to be 74 ng·h/mL, the area under the curve AUC(0-t) turned out to be 73 ng·h/mL, the maximum concentration (Cmax) was 110 ng/mL and the half-life was 5.32 h. In data set [1] (mouse, po, gavage 1 mg/kg), the AUC(0-inf) amounted to 139 ng·h/mL, the area under the curve AUC(0-t) was determined as 138 ng·h/mL, the Cmax turned out to be 94.4 ng/mL and the time to peak (Tmax) stood at 0.5 h. For the same molecule, in data set [1] (mouse, po, gavage 1 mg/kg), the half-life is 5.42 h. Further, the Maximum tolerated dose result in the data set with SD rats was “MTD > 1 mg/kg”.
Take `Cc1cc2c(c(C)c1NC(=O)CCC1CCCC1)CCCCN2Cc1ccc(F)cc1` [Compound A2, 3-cyclopentyl-N-(1-(4-fluorobenzyl)-6,8-dimethyl-2,3,4,5-tetrahydro-1H-benzazepine-7-yl)propionamide]: the concentration for a half-maximal effect (EC50) on KCNQ2 potassium channel amounted to 37 nM. Also, the Maximum tolerated dose result in the data set with SD rats is reported as “MTD > 1 mg/kg”.
For the molecule `CCCC(=O)Nc1c(C)cc2c(c1C)CCCCN2Cc1ccc(F)cc1` [Compound A3, N-(1-(4-fluorobenzyl)-6,8-dimethyl-2,3,4,5-tetrahydro-1H-benzazepine-7-yl)butanamide], the EC50 at KCNQ2 potassium channel (setting [3]) came to 271 nM.
Take `C#CC(C)(C)CC(=O)Nc1c(C)cc2c(c1C)CCCCN2Cc1ccc(F)cc1` [Compound A4, N-(1-(4-fluorobenzyl)-6,8-dimethyl-2,3,4,5-tetrahydro-1H-benzazepine-7-yl)-3,3-dimethylpent-4-ynamide]: the EC50 on KCNQ2 potassium channel (setting [3]) was 165 nM. The F in data set [1] (gavage 2.5 mg/kg vs intravenous 0.5 mg/kg) is on record as 43.39%. Besides, the Kp at 1 h in data set [1] (mouse, brain, single oral 2.5 mg/kg, 1 h) turned out to be 1.1. Further, the concentration ratio (Kp) at 2 h in data set [1] (mouse, brain, single oral 2.5 mg/kg, 2 h) was determined as 1.1. In addition, the Kp at 4 h in data set [1] (mouse, brain, single oral 2.5 mg/kg, 4 h) worked out at 1.3. In addition, the Kp at 8 h in data set [1] (mouse, brain, single oral 2.5 mg/kg, 8 h) worked out at 1.1. Besides, in data set [1] (mouse, intravenous 0.5 mg/kg), the total exposure AUC(0-inf) came to 255 ng·h/mL, the area under the curve AUC(0-t) was determined as 235 ng·h/mL, the Cmax stood at 294 ng/mL and the half-life was 1.9 h. Further, in data set [1] (mouse, po, gavage 2.5 mg/kg), the area under the curve AUC(0-inf) amounted to 541 ng·h/mL, the AUC(0-t) worked out at 510 ng·h/mL, the Cmax was determined as 257 ng/mL and the Tmax turned out to be 0.5 h. In addition, the half-life in data set [1] (mouse, po, gavage 2.5 mg/kg) was 1.95 h.
As to `Cc1cc2c(c(C)c1NC(=O)CC1(C)CC1)CCCCN2Cc1ccc(F)cc1` [Compound A5, N-(1-(4-fluorobenzyl)-6,8-dimethyl-2,3,4,5-tetrahydro-1H-benzazepine-7-yl)-2-(1-methylcyclopropyl)acetamide], the concentration giving a half-maximal response (EC50) at KCNQ2 potassium channel (setting [3]) is 133 nM.
`Cc1cc2c(c(C)c1NC(=O)CC(C)(C)C)CCCCN2Cc1ccc(Cl)s1` [Compound A6, N-(1-((5-chlorothiophene-2-yl)methyl)-6,8-dimethyl-2,3,4,5-tetrahydro-1H-benzazepine-7-yl)-3,3-dimethylbutamide] returned a concentration giving a half-maximal response (EC50) at KCNQ2 potassium channel of 21 nM. In the data set on SD rats, the Maximum tolerated dose entry is given as “MTD > 1 mg/kg”.
As to `Cc1cc2c(c(C)c1NC(=O)CC(C)(C)C)CCCCN2Cc1ccc(F)s1` [Compound A7, N-(1-((5-fluorothiophene-2-yl)methyl)-6,8-dimethyl-2,3,4,5-tetrahydro-1H-benzazepine-7-yl)-3,3-dimethylbutamide], at KCNQ2 potassium channel, the midpoint of the response, the EC50, lay at 16 nM. Moreover, the Maximum tolerated dose result in the data set with SD rats was “MTD > 1 mg/kg”.
For `Cc1cc2c(c(C)c1NC(=O)CCC1CCCC1)CCCCN2Cc1ccc(F)s1` [Compound A8, 3-cyclopentyl-N-(1-((5-fluorothiophene-2-yl)methyl)-6,8-dimethyl-2,3,4,5-tetrahydro-1H-benzazepine-7-yl)propionamide] the same measures were 48 nM and “MTD > 1 mg/kg”.
In the case of `Cc1cc2c(c(C)c1NC(=O)CC(C)(C)C)CCCN2Cc1ccc(F)cc1` [Compound B1, reference compound], in data set [2], the maximal tolerated dose (MTD) at 48 h was 0.06 to 0.3 mg/kg. Further, the “toxicity” value in the data set with SD rats (dose of 0.3 mg/kg) is given as “unacceptable toxicity”.
Consider `Cc1cc2c(c(C)c1NC(=O)CC(C)(C)C)CCN2Cc1ccc(F)cc1` [Compound B2, reference compound], for which, in data set [2], the maximum tolerated dose (MTD) at 48 h was in the range of 0.3 to 1 mg/kg. Further, in the data set with SD rats (dose of 1 mg/kg), the “toxicity” value was “unacceptable toxicity”.
